Source: publication PMC4396990, “Targeting Vascular Endothelial Growth Factor Receptor 2 and Protein Kinase D1 Related Pathways by a Multiple Kinase Inhibitor in Angiogenesis and Inflammation Related Processes In Vitro” (PLoS ONE, 2015)
pIC50: −log10 of the molar value.

Experiments:
Assay type in all cases: biochemical
VEGFR2 = biological target: T1, VEGFR2 (Homo sapiens, UniProt P35968); assay: recombinant kinase assay (Transcreener ADP detection)
T1 construct: gene KDR

PKD2 = biological target: T2, PKD2 (Homo sapiens, UniProt Q9BZL6); assay: kinase selectivity study (SignalChem) at single […] concentration
T2 construct: gene PRKD2
T2 sequence (Q9BZL6 1-878): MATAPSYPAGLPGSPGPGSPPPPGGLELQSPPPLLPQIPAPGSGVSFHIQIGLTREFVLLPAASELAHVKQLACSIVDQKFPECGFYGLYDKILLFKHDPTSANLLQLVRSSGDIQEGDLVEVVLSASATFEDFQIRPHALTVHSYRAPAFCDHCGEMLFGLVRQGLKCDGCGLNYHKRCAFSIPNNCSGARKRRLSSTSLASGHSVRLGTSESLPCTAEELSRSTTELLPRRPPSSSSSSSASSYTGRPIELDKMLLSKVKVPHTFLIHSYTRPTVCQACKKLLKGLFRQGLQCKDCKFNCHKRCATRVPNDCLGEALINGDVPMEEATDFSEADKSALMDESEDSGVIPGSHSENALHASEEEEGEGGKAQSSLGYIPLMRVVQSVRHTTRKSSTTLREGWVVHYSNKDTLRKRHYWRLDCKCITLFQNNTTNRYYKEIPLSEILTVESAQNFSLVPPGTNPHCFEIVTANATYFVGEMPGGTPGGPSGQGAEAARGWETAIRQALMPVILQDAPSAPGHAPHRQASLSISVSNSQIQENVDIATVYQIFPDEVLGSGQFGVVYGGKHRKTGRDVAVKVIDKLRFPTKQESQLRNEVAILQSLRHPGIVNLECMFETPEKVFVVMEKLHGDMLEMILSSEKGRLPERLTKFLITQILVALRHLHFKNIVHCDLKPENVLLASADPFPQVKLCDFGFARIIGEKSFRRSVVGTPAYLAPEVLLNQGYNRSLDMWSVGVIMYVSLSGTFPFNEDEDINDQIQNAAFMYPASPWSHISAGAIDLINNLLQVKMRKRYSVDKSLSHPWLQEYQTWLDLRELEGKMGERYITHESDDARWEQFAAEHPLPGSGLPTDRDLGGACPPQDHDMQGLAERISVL

VEGFR1 = biological target: T3, VEGFR1 (Homo sapiens, UniProt P17948); assay: recombinant kinase assay (ProQinase) at single […] concentration
T3 construct: gene FLT1
T3 sequence (P17948 27-1338): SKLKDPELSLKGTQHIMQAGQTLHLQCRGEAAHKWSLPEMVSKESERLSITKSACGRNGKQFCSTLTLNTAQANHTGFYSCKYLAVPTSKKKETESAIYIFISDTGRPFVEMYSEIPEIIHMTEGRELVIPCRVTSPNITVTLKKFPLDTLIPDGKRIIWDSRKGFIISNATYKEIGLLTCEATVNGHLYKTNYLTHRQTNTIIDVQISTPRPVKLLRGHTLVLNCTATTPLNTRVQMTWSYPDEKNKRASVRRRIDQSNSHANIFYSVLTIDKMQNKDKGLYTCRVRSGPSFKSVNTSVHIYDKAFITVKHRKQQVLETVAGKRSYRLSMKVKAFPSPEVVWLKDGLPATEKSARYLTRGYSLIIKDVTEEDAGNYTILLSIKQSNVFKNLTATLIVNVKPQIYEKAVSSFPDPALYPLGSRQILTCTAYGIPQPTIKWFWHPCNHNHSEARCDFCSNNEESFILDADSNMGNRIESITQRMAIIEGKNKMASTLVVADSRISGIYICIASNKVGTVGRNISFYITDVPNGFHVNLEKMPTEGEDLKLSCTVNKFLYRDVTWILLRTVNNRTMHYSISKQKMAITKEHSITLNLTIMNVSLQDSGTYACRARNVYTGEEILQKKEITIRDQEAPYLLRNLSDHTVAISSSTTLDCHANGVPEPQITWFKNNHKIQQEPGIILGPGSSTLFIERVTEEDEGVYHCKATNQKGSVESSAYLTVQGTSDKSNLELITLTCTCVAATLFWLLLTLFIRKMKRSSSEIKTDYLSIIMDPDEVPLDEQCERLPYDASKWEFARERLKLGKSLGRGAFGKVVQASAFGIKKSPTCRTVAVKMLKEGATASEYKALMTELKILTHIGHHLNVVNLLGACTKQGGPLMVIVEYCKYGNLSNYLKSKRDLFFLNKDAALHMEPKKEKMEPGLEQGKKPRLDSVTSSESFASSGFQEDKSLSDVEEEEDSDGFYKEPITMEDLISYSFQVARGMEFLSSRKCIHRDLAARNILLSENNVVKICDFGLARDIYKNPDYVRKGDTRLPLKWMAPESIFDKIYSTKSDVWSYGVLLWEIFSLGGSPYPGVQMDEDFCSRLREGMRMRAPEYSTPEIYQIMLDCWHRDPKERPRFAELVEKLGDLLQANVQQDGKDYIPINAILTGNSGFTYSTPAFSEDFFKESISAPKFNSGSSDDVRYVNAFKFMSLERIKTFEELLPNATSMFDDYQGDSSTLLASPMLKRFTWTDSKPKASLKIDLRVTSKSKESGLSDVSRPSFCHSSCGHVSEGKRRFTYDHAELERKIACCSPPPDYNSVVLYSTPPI

PKD1 = biological target: T4, PKD1 (Homo sapiens, UniProt Q15139); assay: recombinant kinase assay (IMAP fluorescence polarization, TAMRA-peptide)
T4 construct: gene PRKD1
T4 sequence (Q15139 1-912): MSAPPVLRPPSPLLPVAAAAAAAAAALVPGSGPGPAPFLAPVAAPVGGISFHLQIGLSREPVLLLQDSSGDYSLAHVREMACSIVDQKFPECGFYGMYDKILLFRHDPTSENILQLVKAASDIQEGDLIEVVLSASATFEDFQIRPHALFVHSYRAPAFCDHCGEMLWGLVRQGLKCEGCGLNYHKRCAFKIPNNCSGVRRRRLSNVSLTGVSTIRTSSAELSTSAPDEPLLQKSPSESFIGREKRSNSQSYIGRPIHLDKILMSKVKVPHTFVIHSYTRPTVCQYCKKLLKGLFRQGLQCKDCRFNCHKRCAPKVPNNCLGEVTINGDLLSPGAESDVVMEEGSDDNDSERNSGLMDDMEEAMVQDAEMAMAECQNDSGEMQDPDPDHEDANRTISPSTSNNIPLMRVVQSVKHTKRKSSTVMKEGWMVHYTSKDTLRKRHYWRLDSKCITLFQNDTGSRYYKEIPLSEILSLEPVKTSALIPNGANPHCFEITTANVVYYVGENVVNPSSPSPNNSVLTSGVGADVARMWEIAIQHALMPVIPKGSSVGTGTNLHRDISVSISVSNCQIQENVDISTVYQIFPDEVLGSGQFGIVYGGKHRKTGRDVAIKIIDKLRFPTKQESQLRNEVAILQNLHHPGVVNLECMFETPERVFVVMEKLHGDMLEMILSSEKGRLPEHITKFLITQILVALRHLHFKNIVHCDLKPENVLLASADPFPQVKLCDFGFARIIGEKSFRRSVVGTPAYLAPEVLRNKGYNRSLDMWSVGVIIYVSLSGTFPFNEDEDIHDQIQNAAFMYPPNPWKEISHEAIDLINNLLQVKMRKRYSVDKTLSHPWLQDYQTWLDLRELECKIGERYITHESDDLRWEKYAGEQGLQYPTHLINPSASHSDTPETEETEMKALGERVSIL

VEGFR3 = biological target: T5, VEGFR3 (Homo sapiens, UniProt P35916); assay: recombinant kinase assay (ProQinase) at single […] concentration
T5 construct: gene FLT4
T5 sequence (P35916 25-1363): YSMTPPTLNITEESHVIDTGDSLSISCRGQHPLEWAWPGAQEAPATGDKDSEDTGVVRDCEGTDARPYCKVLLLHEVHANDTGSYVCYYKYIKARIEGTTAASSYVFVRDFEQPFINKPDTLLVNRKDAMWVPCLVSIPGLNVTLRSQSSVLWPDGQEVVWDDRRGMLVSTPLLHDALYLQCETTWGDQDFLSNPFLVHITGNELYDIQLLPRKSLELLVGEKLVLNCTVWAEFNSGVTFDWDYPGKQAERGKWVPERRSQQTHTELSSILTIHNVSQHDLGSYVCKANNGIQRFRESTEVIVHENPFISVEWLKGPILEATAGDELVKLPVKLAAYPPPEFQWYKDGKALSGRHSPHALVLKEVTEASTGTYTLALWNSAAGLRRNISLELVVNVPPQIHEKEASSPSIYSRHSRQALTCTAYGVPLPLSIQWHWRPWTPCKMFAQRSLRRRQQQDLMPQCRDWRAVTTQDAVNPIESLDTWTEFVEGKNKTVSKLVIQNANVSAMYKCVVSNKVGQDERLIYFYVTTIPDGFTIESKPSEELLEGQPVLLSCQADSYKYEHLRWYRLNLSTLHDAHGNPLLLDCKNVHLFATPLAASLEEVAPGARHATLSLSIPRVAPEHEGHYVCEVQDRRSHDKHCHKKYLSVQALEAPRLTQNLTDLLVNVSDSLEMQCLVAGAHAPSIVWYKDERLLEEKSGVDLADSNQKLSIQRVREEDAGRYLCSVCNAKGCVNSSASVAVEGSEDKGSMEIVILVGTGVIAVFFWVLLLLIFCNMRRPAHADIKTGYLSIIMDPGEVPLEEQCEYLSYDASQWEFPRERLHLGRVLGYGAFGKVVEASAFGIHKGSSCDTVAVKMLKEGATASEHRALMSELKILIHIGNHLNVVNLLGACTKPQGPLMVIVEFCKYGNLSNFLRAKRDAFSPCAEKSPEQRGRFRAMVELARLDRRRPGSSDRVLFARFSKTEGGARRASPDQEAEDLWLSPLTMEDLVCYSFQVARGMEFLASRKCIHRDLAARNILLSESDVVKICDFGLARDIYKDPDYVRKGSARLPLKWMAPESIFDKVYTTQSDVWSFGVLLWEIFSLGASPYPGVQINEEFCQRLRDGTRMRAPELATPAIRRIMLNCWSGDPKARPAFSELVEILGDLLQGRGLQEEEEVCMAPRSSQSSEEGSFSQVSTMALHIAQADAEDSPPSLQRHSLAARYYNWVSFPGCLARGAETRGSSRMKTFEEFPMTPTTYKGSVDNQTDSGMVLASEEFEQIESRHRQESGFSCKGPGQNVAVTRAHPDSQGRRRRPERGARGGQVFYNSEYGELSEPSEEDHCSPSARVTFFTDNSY

T1 sequence (P35968 20-1356): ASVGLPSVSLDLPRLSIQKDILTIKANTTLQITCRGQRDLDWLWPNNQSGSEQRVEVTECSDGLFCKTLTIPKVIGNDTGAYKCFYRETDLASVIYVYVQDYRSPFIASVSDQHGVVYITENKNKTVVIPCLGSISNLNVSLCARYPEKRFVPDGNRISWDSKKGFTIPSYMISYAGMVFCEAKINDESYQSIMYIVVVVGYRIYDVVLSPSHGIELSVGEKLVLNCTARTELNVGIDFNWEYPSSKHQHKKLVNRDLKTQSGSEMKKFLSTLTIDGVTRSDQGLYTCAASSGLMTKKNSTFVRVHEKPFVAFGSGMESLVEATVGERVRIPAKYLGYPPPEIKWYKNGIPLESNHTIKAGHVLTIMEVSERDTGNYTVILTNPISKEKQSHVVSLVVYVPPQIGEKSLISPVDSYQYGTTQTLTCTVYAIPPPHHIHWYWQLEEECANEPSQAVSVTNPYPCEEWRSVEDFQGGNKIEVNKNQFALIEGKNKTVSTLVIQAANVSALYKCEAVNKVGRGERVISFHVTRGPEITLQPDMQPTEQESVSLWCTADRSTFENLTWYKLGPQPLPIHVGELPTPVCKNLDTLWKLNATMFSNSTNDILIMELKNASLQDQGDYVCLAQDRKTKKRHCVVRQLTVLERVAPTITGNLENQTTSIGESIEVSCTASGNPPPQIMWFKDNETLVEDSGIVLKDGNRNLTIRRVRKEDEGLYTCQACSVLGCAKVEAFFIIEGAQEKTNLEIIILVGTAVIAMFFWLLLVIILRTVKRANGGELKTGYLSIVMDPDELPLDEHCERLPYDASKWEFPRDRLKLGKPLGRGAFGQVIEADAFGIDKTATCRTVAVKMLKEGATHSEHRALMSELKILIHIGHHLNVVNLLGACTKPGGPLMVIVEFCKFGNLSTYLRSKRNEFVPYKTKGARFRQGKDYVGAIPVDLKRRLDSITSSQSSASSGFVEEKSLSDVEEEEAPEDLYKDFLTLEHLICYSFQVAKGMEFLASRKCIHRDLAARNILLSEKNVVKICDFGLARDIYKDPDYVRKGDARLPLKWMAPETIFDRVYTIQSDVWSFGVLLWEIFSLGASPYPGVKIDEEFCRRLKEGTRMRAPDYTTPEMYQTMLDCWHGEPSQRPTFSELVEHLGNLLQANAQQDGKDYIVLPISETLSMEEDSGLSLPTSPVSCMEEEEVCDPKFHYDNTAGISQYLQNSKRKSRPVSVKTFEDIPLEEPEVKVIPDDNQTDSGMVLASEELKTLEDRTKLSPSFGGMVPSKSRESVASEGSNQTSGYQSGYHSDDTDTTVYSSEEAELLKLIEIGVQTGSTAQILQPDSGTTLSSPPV

pIC50 (VEGFR2): 7.16
pIC50 (PKD1): 7.55
SMILES: CCn1c(=O)ccc2cnc(Nc3ccc(N4CCN(C)CC4)cc3)nc21 [VCC251801]
kinase selectivity study (SignalChem) at single 5 μM concentration (PKD2): it showed moderate inhibitory effect against the other PKD isoform, PKD2
recombinant kinase assay (ProQinase) at single 1 μM concentration (VEGFR1): In this selectivity study, VCC251801 blocked both VEGFR1 and VEGFR3 activation
recombinant kinase assay (ProQinase) at single 1 μM concentration (VEGFR3): In this selectivity study, VCC251801 blocked both VEGFR1 and VEGFR3 activation
